From patent US10968214B2, “KRas G12C inhibitors” (Eli Lilly and Company, priority 2018, dated 2021)
Read-outs that look alike come from different tables or passages of the source.

Legend:
[1] = molecular target: T1, constitutive RAS GTPAse activity in H358 cells (Homo sapiens, UniProt P01116, G12C); assay: H358 Cellular Active RAS GTPase ELISA; assay type: cell-based; settings: 2 hr, read-out: RAS-GTP
T1 construct: host or cells: H358 human lung cancer cells
Source text: This assay is used to measure the ability of test compounds to inhibit constitutive RAS GTPAse activity in human lung cancer cells H358 (ATCC CRL-5807). The RAS GTPase ELISA kit (Active Motif Cat #52097) contains a 96-well plate pre-coated with glutathione in order to capture a kit-supplied GST-Raf-RBD protein. Activated RAS (GTP-bound) in cell extracts specifically bind to the Raf-RBD. Bound RAS is detected with a primary antibody that recognizes human KRas. A secondary antibody conjugated with HRP recognizes the primary antibody and a development solution provides a chemiluminescent readout.
H358 cells are plated at 80,000 cells/well in 90 μL serum free media (RPMI 1640, GIBCO) and incubated overnight at 37° C./5% CO2. The next morning, 10 μL of serially-diluted (3-fold) test compounds (500 μM top concentration) and 10 μL of controls (Maximum signal wells: 5% DMSO and Minimum signal wells: 500 μM LSN3429410 as an inhibitor) are added to the cell plate and incubated for 2 hr at 37° C./5% CO2. Complete Lysis/Binding Buffer is prepared containing Protease Inhibitor cocktail and GST-Raf-RBD and stored on ice. One hour before cell plate incubation is completed, 50 μL of GST-Raf-RBD is diluted in lysis/binding buffer, and buffer is added to the ELISA assay plate and which is incubated for 1 hour at 4° C. with gently rocking. After 2 hr, the cells are washed with 100 μL ice-cold PBS and lysed with 100 μL lysis/binding buffer. The cell plate is shaken for 10 min at RT. The cell plate is then centrifuged at 1500 rpm for 10 min at RT. During this time, 1× Wash Buffer is prepared at RT and then is used to wash (3×100 μL) the GST-Raf-RBD coated assay plate. After washing, 50 μL of cell lysate is added to the GST-Raf-RBD coated assay plate and incubated for 1 hour at RT with gentle shaking. During this incubation period, 1× Antibody Binding Buffer is prepared and brought to RT. The assay plate is washed 3×100 μL with 1× Wash Buffer and then 50 μL of Primary Antibody (diluted 1:500 in 1× Antibody Binding buffer) is added. The plate is incubated for 1 hour at RT. The assay plate is washed 3×100 μl with 1× Wash Buffer and then 50 μL of Secondary Antibody (diluted 1:5000 in 1× Antibody Binding buffer) is added and incubated for 1 hour at RT. The assay plate is washed 4×100 μL with 1× Wash buffer and then 50 μL of chemiluminescent working solution is added at RT. The assay plate is then read on an EnVision™ Plate Reader (Perkin Elmer) using a luminescence program.
The signal is converted to percent inhibition using the following equation: % Inhibition=100−[(Test Compound Signal−Median Minimum Signal)/(Median Maximum Signal−Median Minimum Signal)×100]. The Maximum signal is a control well without inhibitor.

[2] = tested on: phosphorylation of p-ERK1/2 in H358 cells; assay: H358 Cellular Phospho-ERK AlphaLISA; assay type: cell-based, Human; settings: read-out: pERK
Protocol: This assay is used to measure the ability of test compounds to inhibit the phosphorylation of p-ERK1/2, a downstream effector of KRas in Human lung cancer cells H358 (ATCC CRL-5807). Briefly, the AlphaLISA® SureFire® Ultra™ p-ERK 1/2 (Thr202/Tyr204) assay is a sandwich immunoassay for quantitative detection of phospho-ERK 1/2 (phosphorylated on Thr202/Tyr204 in ERK1, or Thr185/Tyr187 in ERK2) in cellular lysates using Alpha Technology (Perkin Elmer Cat #ALSU-PERK-A50K).
H358 cells are plated at 40K cells per well in 100 μL media (RPMI 1640, GIBCO Cat #22400-071) containing 10% FBS (GIBCO Cat #: 10082-147) in a 96 well plate (Costar #3596) and are incubated overnight in humid trays at 37° C., 5% CO2. The next morning, 10 μL of serially-diluted (3-fold) test compounds (50 μM top concentration) and 10 uL of controls (Maximum signal wells: 5% DMSO and Minimum signal wells: 2 μM of N-(3-{3-cyclopropyl-5-[(2-fluoro-4-iodophenyl)amino]-6,8-dimethyl-2,4,7-trioxo-3,4,6,7-tetrahydropyrido[4,3-D]pyrimidin-1(2H)-yl}phenyl)acetamide (trametinib, as a positive control) are added to the cell plate and incubated for 2 hr in humid trays at 37° C./5% CO2. Lysis Buffer is prepared at RT containing a protease and phosphatase inhibitor cocktail. Culture medium is removed by inverting and shaking the cell plate in the sink and then blotting onto a paper towel. Lysis buffer is added to the cell plate (50 μL per well) and the plate is incubated at RT for 10 min on a shaker. For p-ERK detection, acceptor beads are diluted into a suspension mixture with buffer. Using a Starlett liquid handler, 5 μL of acceptor beads and 2 μL of cell lysate are transferred as a single-step in-tip dilution to a 384 well assay plate. The assay plate is sealed with foil and is incubated at RT for 2 hrs. Donor beads are diluted into a suspension mixture with buffer. Using the Starlet, 5 μL of donor beads are added to the assay plate that is then sealed, wrapped with foil. The plate is incubated at RT for 2 hrs in the dark. The assay plate is then read on an EnVision™ Plate Reader (Perkin Elmer) using a luminescence program.
The signal is converted to percent inhibition using the following equation: % Inhibition=100−[(Test Compound Signal−Median Minimum Signal)/(Median Maximum Signal−Median Min Signal)×100]. The Maximum signal is a control well without inhibitor.

[3] = molecular target: KRas G12C (Homo sapiens, UniProt P01116, G12C); assay: KRas G12C Probe Occupancy TR-FRET Assay; assay type: binding; settings: 60 min incubation of inhibitor with KRas G12C; read-out: TR-FRET 60 min
Protocol: Inhibitors are tested in dose response format from 10 mM stocks in 100% DMSO. The Labycyte Echo® 555 is used to dilute and transfer 100 nL per well containing a 10 point, 2.8-fold serial dilution to an assay plate. […] The signal ratio (em at 665/em at 615) is converted to percent inhibition using the following equation: % Inhibition=100−[(Test Compound Signal−Median Minimum Signal)/(Median Maximum Signal−Median Minimum Signal)×100].

[4] = tested on: EL3187 (PDX); assay: Anti-tumor growth activity, EL3187 lung PDX; assay type: in vivo; settings: EL3187 Lung PDX; Afatinib 25 mg/kg QDx28

Sequence of KRas G12C (P01116 1-188 isoform P01116-2 G12C): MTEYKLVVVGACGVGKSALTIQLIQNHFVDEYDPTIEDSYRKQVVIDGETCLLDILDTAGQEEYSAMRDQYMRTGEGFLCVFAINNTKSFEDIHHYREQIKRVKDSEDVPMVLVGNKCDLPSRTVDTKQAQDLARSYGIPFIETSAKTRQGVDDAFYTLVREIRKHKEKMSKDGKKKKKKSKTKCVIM
T1 sequence (P01116 1-188 isoform P01116-2 G12C): as above

Structure (SMILES) | IC50 [1] | IC50 ([2]; 2 hr) | IC50 [3] | In Vivo Anti-Tumor Activities [4] | IC50 ([2]; Homo sapiens, NCI-H358, 2 h)
C=CC(=O)N1CCN(c2ncnc3c(F)c(-c4c(F)cc(F)c5sc(N)nc45)c(Cl)cc23)CC1 (single isomer, unassigned) [Example 6a, 1-{4-[7-(2-Amino-5,7-difluoro-1,3-benzothiazol-4-yl)-6-chloro-8-fluoroquinazolin-4-yl]piperazin-1-yl}prop-2-en-1-one] | 11.7 nM | 3.94 nM | < 18.9 nM | – | –
C=CC(=O)N1CCN(c2ncnc3c(F)c(-c4c(F)cc(F)c5sc(N)nc45)c(Cl)cc23)CC1 (single isomer, unassigned) [Example 6b, 1-{4-[7-(2-Amino-5,7-difluoro-1,3-benzothiazol-4-yl)-6-chloro-8-fluoroquinazolin-4-yl]piperazin-1-yl}prop-2-en-1-one] | 743 nM | 256 nM | 449 nM | – | –
CN(C)C/C=C/C(=O)Nc1cc2c(Nc3ccc(F)c(Cl)c3)ncnc2cc1O[C@H]1CCOC1 [Afatinib, afatinib, reference compound] | – | – | – | 17.1 | –
C=CC(=O)N1CCN(c2ncnc3c(Cl)c(-c4ccc(F)c5sc(N)nc45)c(Cl)cc23)CC1 [Example 2, 1-{4-[7-(2-Amino-7-fluoro-1,3-benzothiazol-4-yl)-6,8-dichloroquinazolin-4-yl]piperazin-1-yl}prop-2-en-1-one] | 148 nM | – | 47.6 nM | – | 19.4 nM
C=CC(=O)N1CCN(c2ncnc3c(F)c(-c4cc(F)c(F)c5sc(N)nc45)c(Cl)cc23)CC1 [Example 3, 1-{4-[7-(2-Amino-6,7-difluoro-1,3-benzothiazol-4-yl)-6-chloro-8-fluoroquinazolin-4-yl]piperazin-1-yl}prop-2-en-1-one] | 166 nM | – | 20.9 nM | – | 15.3 nM
C=CC(=O)N1CCN(c2ncnc3cc(-c4ccc(F)c5sc(N)nc45)c(Cl)cc23)CC1 [Example 4, 1-{4-[7-(2-Amino-7-fluoro-1,3-benzothiazol-4-yl)-6-chloroquinazolin-4-yl]piperazin-1-yl}prop-2-en-1-one] | 234 nM | – | 25 nM | – | 27.1 nM
C=CC(=O)N1CCN(c2ncnc3c(F)c(-c4cccc5sc(N)nc45)c(Cl)cc23)CC1 [Example 5, 1-{4-[7-(2-Amino-1,3-benzothiazol-4-yl)-6-chloro-8-fluoroquinazolin-4-yl]piperazin-1-yl}prop-2-en-1-one] | 104 nM | – | 27.8 nM | – | 9.73 nM
C=CC(=O)N1CCN(c2ncnc3c(F)c(-c4c(O)cccc4F)c(Cl)cc23)CC1 [reference compound] | 3780 nM | – | – | – | 1600 nM
C=CC(=O)N1CCN(c2ncnc3c(F)c(-c4cc(O)cc5ccccc45)c(Cl)cc23)CC1 [reference compound] | 392 nM | – | 45.2 nM | – | 204 nM
C=CC(=O)N1CCN(c2ncnc3cc(-c4ccc5oc(N)nc5c4)c(Cl)cc23)CC1 [reference compound] | > 50000 nM | – | 82200 nM | – | > 5000 nM
